Values quoted from earlier work as cited in patent publication US20220372042A1, “CONDENSED HETEROCYCLES AS BCL-2 INHIBITORS” (Newave Pharmaceutical Inc., priority 2019, published 2022).
Values belong to the compound of their own block, whether it stands above or below them.

How the values were obtained:
established tumors = conditions: mouse, in vivo
[1] = in vivo
H345 xenograft = conditions: 100 mg/kg/day, H345 xenograft model
Bcl-w = target: T1, Bcl-w (Homo sapiens, UniProt Q92843)
T1 sequence (Q92843 1-193): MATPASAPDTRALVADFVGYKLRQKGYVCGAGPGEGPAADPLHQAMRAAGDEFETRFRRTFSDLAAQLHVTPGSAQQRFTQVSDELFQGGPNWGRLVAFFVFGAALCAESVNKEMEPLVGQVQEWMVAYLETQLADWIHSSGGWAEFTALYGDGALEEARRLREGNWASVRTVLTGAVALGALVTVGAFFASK

[2] = system: xenograft models of small-cell lung cancer and acute lymphoblastic leukemia; conditions: single agent
circulating platelets = conditions: patients, clinical trial
SCLC H146 cell line = conditions: read-out: IC50 against SCLC H146 cell line
RS4; 11 xenografts = conditions: single dose of 100 mg/kg
CLL = conditions: average; read-out: average EC50 apoptosis in CLL
[3] = system: CLL who have 17p deletion; conditions: CLL with 17p deletion
[4] = system: DoHH2, Granta-519 xenografts; conditions: single agent or in combination with Bendamustine and other agents

aqueous solubility: low aqueous solubility
oral bioavailability [1]: not orally bioavailable
Compound: CN(C)CC[C@H](CSc1ccccc1)Nc1ccc(S(=O)(=O)NC(=O)c2ccc(N3CCN(Cc4ccccc4-c4ccc(Cl)cc4)CC3)cc2)cc1[N+](=O)[O-] [ABT-737]
efficacy in animal models (established tumors): improves survival, causes regression of established tumors, and produces cures in a high percentage of the mice

Ki (Bcl-w): ≤ 1 nM
number of circulating platelets (circulating platelets): rapid, concentration-dependent decrease
IC50 (SCLC H146 cell line): 110 nM
Compound: CC1(C)CCC(c2ccc(Cl)cc2)=C(CN2CCN(c3ccc(C(=O)NS(=O)(=O)c4ccc(N[C@H](CCN5CCOCC5)CSc5ccccc5)c(S(=O)(=O)C(F)(F)F)c4)cc3)CC2)C1 [ABT-263]
TGI (H345 xenograft): 80%
treated tumors indicating at least a 50% reduction in tumor volume (H345 xenograft): 20%
tumor response after oral administration alone [2]: complete tumor regressions

EC50 (RS4; 11 cells): 8 nM
EC50 (CLL): 3 nM
Compound: CC1(C)CCC(CN2CCN(c3ccc(C(=O)NS(=O)(=O)c4ccc(NCC5CCOCC5)c([N+](=O)[O-])c4)c(Oc4cnc5[nH]ccc5c4)c3)CC2)=C(c2ccc(Cl)cc2)C1 [ABT-199]
maximal tumor growth inhibition (RS4; 11 xenografts): 95%
tumor growth delay (RS4; 11 xenografts): 152%
clinical efficacy [3]: highly efficacious
xenograft growth [4]: inhibits xenograft growth
